The text below walks through data of patent publication US5196513A, “Synthetic peptides derived from the beta-subunit of human thyroid stimulating hormone” (Mayo Foundation for Medical Education and Research, priority 1991, dated 1993).

Residues, ends and D or L forms follow the SMILES beside them.

Assay [1] concerns the target T1, FRTL5 cells (Rattus norvegicus, UniProt P21463). Nature of the assay: TSab bioassay, inhibition of TSab-stimulated cAMP generation in FRTL5 cells. It is filed as cell-based. The note with it: for Serum samples in which TSab-stimulated cAMP was significantly inhibited (p<0.05) / samples tested: peptide 150 μg/ml; for Inhibition of TSab-stimulated cAMP generation (in words): peptide 50 and 150 μg/ml. The method, then:
(§1) FRTL5 cells were cultured in Hams F-12 medium supplemented with 5% calf serum and a preparation containing 6 hormones (6H), including 10 mU/ml bTSH (Sigma, St. Louis, Mo.), as previously described. Ambesi-Impiombato et al., Proc. Natl. Acad. Sci. U.S.A., 77:3455 (1980), the disclosure of which is incorporated by reference herein. The cells were enzymatically removed from flasks and plated in 24 well plates containing 6H at a density of 150,000 cells per well. After 4 days, the cells were washed and the media replaced with media containing insulin only (1H). All subsequent assays were performed on cells deprived of TSH for 5-7 days.
Serum samples from 15 patients with elevated TSab levels were selected from the clinical chemistry laboratory. The TSab values, expressed as an index, [formula] 63:707 (1988)]ranged from 10-20 with an average of 13.8±3.3. Normal serum has an index of less than 1.3.
The bioassay described by Kasagi et al., supra, with modifications as previously noted above, was used. The immunoglobulins were precipitated from 2 ml of TSab-containing serum with 6 ml of polyethylene glycol 6,000 (Baker; Phillipsburg, N.J.), centrifuged at 3,000×g for 20 minutes, and resuspended in 4 ml of NaCl-free HBSS with 0.5 mM IBMX and 0.5% BSA. The plated cells were washed with NaCl-free HBSS and the crude immunoglobulin extract, mixed with various concentrations of β-subunit peptides, was added in duplicate to the wells (total volume 200 μl/well). The cells were incubated for 2 hours at 37° C. and 5% CO2. The samples were then removed from the cells and a portion diluted 1:50 in NaOAc buffer, pH 6.2. A 25 μl aliquot of this was then used in a cAMP RIA as described above. The basal cAMP levels were determined for each plate of cells in the absence of immunoglobulin extract and β-peptides. A maximal cAMP level was attained by stimulating the cells with the immunoglobulin extract only. The percent increase in cAMP levels above basal was calculated as: [formula] as previously described (see Morris et al., supra). The percent inhibition of cAMP production by the β-subunit peptides was calculated as described above for TSH-stimulated cells, substituting pmol cAMP crude immunoglobulin for pmol cAMP TSH.
Inhibition of TSab activity was tested by comparing the replicates of cAMP levels generated in the presence of peptide to those generated by TSab alone using Student's T test for unpaired samples. Mean inhibition by the various doses of synthetic peptide for the patient group was tested by comparison with maximum cAMP response within each patient sample using the T test for paired samples.

Assay [2] addresses T1, FRTL5 cells. Nature of the assay: TSH bioassay, inhibition of TSH-mediated cAMP generation in FRTL5 cells. It is filed as cell-based. Here is the method: as §1
The TSH bioassay was a modification of assays previously described by Bidey et al., J. Endocrinol., 101:269 (1984); and Kasagi et al., ACTA Endocrinol., 115:30 (1987). FRTL5 cells were washed with NaCl-free Hanks balanced salt solution (NaCl-free HBSS) pH 7.3. The cells were then exposed to purified bovine TSH (bTSH) (a gift from Dr. John Pierce, formerly of UCLA) in the presence and absence of specific β-subunit peptides in NaCl-free HBSS with 0.5 mM isobutylmethylxanthine (IBMX, Sigma, St. Louis, Mo.) and 0.5% BSA (Sigma). The total volume in each well was 275 μl. In stimulation assays, only the β-subunit peptides were added. For inhibition assays, two different concentrations of the β-subunit peptides were added to culture wells in duplicate with 200 mU/I of purified bTSH. The plates were incubated for 2 hours at 37° C. in 5% CO2. The media was removed from the cells and a portion diluted 1:50 in 0.05M NaOAc buffer, pH 6.2. A 25 μl aliquot of this was used in a cAMP RIA. Basal cAMP levels were determined in the absence of the TSH or β-subunit peptides. In inhibition assays, the percent inhibition was calculated as noted below (see Morris et al., (1988) supra): [formula]

Assay [3] deals with T2, porcine TSH receptor (porcine thyroid membranes) (Sus scrofa, UniProt Q8SPP9).
T2 construct: Frozen porcine thyroid glands were purchased; tissue Pel-Freez Biologicals; host or cells: porcine thyroid glands, crude membrane preparation
T2 sequence (Q8SPP9 22-764): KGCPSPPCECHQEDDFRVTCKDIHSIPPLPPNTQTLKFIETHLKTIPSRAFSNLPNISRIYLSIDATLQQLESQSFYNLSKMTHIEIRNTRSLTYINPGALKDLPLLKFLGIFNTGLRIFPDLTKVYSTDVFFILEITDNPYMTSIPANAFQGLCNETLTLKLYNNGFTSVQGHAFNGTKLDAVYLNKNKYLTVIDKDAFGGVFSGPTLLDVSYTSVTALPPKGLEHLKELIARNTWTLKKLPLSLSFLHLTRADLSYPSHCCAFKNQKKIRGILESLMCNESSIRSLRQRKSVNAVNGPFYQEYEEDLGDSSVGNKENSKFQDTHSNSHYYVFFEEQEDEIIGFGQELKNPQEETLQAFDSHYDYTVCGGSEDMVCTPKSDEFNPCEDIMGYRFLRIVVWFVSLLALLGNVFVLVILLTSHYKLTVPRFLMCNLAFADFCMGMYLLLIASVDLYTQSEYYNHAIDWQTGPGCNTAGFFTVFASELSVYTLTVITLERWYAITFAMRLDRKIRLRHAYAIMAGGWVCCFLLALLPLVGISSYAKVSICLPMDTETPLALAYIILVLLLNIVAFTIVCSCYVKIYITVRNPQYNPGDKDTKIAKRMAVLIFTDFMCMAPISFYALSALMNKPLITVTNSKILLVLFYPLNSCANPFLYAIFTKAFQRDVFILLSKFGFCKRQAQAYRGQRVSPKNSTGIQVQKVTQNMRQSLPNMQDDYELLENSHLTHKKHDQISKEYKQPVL
Nature of the assay: Porcine thyroid membrane TSH radio-receptor assay (inhibition of 125I-bTSH binding). The note with it: concentration inhibiting 125I-bTSH binding to porcine thyroid membrane by 50%; mean ± se of at least 3 assays. From the text:
(§2) Frozen porcine thyroid glands were purchased (Pel-Freez Biologicals, Rogers, Ak.) and prepared using the same procedures as for the human glands.
(§3) Highly purified bTSH (30 U/mg, supplied by Dr. J. G. Pierce, formerly of UCLA) was radio-iodinated (Na^125 I, Amersham, Chicago) by a lactoperoxidase technique to a specific activity averaging 40-50 μCi/μg as previously described, Takahashi et al., supra, then purified by Sephadex G-100 chromatography.
(§4) The TSH radio-receptor assay (RRA) utilized for the studies has been well described previously; see Takahashi et al., supra and Morris et al., Endocrinology, 123:456-462 (1988), the disclosure of which is incorporated by reference herein. Briefly, for either human or porcine thyroid RRA, the incubation mixture consisted of the following: 10 mg equivalents of wet weight (mg eq) crude thyroid membrane preparation, 0.124 ng [^125 I]iodo-bTSH (approximately 20,000 cpm), 0.2% Triton X-100, and the noted amounts of synthetic peptides or unlabeled bTSH in 0.5 ml 40 mM Tris, 0.1% BSA, pH 7.4. Bound label was separated from free after 2 hrs incubation at 25° C. by addition of a 1 ml 30% polyethylene glycol (PEG, Baker, Phillipsburg, N.J.) 6000 in 1M NaCl and centrifugation. The resulting pellet was counted in a gamma counter. Non-specific binding was determined by addition of a 100 mU/ml crude bTSH (Sigma, St. Louis).

Assay [4] concerns the target T3, TSH receptor on human thyroid membranes (Homo sapiens, UniProt P16473).
T3 construct: Crude membrane preparations were prepared from the frozen tissue; from tissue; host or cells: human thyroid tissue (Graves' disease patients), crude 2000 x g membrane fraction
Nature of the assay: Human thyroid membrane TSH radio-receptor assay (inhibition of 125I-bTSH binding). The note with it: for EC50: concentration inhibiting 125I-bTSH binding to human thyroid membrane by 50%, mean ± se of at least 3 assays; for Inhibition of TSH binding to human thyroid membrane (in words): human thyroid membrane RRA. The method, then:
Thyroid tissue from patients with Graves' disease was obtained at surgery and promptly frozen and maintained at -70° C. Crude membrane preparations were prepared from the frozen tissue as previously described, Takahashi et al., J. Clin. Endocrinol. Metab., 47:870-876 (1978), the disclosure of which is incorporated by reference herein. Briefly, the tissue was homogenized with a Polytron homogenizer (Brinkmann Instruments,Westbury, N.Y.), and the 2000×g fraction was collected by centrifugation, washed, and resuspended in 40 mM Tris, 200 mM sucrose, pH 7.4. Membrane preparations were maintained at -70° C. until assay.
as §3, §4

The target of assay [5] is T4, EGF thyroid membrane receptor (Sus scrofa, UniProt A0A5G2R2I8).
T4 construct: The incubation mixture consisted of 40 mg eq crude thyroid membrane; tissue Pel-Freez Biologicals; host or cells: porcine thyroid glands, crude membrane preparation
T4 sequence (A0A5G2R2I8 22-1210): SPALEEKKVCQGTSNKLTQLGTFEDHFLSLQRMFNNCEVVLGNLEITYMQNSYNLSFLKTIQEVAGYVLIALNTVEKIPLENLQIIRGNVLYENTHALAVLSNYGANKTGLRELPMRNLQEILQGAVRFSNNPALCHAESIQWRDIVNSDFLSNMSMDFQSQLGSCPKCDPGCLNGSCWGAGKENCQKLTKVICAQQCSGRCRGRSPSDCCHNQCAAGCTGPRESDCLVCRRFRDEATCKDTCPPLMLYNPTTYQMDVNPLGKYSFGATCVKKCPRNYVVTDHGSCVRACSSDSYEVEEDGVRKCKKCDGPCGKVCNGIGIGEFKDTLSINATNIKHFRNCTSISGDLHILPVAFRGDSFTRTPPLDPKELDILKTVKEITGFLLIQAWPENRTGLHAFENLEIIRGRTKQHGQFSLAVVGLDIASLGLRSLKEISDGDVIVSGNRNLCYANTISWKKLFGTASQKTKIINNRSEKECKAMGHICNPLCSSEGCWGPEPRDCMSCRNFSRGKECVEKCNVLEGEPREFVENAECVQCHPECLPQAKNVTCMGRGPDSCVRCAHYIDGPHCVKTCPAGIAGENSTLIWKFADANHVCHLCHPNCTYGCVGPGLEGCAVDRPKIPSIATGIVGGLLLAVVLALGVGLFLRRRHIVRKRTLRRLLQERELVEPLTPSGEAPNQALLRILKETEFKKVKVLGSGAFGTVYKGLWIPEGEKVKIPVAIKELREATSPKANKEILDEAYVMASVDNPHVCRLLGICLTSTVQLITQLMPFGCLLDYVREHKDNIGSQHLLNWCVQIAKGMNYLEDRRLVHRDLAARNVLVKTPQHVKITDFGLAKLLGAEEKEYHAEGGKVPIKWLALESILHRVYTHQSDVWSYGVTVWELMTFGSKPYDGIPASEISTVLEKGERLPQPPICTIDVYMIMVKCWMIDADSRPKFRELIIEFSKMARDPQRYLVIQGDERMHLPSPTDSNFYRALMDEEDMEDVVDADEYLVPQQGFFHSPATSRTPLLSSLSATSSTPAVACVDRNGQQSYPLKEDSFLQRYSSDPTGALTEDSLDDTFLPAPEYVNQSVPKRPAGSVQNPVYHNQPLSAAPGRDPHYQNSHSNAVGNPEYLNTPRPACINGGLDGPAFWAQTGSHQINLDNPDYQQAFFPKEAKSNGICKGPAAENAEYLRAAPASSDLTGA
Nature of the assay: Porcine thyroid membrane epidermal growth factor radio-receptor assay. It is filed as binding. The note with it: [125I]iodo-EGF, read-out: EC50 of unlabeled EGF in EGF RRA. The method, then: as §2
The EGF RRA was a modification of that described by Humphries et al., J. Endocrinol., 102:857-61 (1984), the disclosure of which is incorporated by reference herein. Purified murine EGF (a gift of Dr. N. S. Jiang, Mayo Clinic) was radio-iodinated by a chloramine-T technique to a specific activity of 65 μCi/μg. The incubation mixture consisted of 40 mg eq crude thyroid membrane, 0.5 ng [^125 I]iodo-EGF, and the indicated concentrations of unlabeled EGF or synthetic peptides in 0.5 ml phosphate buffered saline plus 5 mM MgCl2, 1 mM CaCl2, 0.1% BSA, pH 7.4. Non-specific binding was determined by addition of 0.5 μg unlabeled EGF. Bound was separated from free by precipitation with PEG and centrifugation as above.

T1 sequence (P21463 22-764): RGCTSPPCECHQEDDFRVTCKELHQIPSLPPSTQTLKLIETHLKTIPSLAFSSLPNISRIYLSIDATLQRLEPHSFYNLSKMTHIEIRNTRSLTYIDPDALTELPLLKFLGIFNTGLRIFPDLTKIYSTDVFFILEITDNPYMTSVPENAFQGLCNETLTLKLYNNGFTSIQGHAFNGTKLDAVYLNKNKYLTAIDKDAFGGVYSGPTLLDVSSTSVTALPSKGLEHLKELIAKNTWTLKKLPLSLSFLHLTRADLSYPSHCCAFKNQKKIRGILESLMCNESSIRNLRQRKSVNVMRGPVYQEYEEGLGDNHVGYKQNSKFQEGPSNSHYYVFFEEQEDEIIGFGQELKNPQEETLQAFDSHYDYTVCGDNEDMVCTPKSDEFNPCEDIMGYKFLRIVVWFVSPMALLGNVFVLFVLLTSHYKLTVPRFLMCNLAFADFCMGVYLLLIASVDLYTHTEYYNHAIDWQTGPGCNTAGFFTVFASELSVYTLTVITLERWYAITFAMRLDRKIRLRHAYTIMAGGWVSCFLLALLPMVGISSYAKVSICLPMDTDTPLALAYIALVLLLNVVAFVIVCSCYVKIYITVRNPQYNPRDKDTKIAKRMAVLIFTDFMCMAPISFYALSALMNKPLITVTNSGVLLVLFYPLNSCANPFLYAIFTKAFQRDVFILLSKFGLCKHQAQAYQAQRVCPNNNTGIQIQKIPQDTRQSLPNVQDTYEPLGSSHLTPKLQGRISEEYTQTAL
T3 sequence (P16473 21-764): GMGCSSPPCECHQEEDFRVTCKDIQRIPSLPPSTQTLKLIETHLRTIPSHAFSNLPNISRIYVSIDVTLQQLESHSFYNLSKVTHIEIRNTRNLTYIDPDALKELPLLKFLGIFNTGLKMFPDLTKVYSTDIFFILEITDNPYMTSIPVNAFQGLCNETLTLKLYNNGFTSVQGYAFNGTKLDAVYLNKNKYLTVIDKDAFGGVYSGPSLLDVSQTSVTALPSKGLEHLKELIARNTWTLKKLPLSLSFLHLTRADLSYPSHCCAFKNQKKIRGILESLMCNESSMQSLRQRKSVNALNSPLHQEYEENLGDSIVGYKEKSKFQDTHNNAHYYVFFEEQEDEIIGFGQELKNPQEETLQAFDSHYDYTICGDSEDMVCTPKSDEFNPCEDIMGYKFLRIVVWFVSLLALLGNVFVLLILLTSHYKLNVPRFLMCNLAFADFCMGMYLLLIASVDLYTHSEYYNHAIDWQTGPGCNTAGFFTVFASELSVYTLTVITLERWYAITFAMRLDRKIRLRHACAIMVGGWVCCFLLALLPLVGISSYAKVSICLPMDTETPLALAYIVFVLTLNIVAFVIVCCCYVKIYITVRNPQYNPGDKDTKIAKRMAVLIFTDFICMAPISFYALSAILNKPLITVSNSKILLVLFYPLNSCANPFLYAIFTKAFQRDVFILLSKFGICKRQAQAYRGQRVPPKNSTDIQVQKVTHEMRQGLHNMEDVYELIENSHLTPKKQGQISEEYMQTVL

As to `CC[C@H](C)[C@H](NC(=O)[C@H](Cc1c[nH]cn1)NC(=O)[C@H](CCSC)NC(=O)[C@@H](NC(=O)[C@H](Cc1ccc(O)cc1)NC(=O)[C@H](CCC(=O)O)NC(=O)[C@@H](NC(=O)[C@@H]1CCCN1C(=O)[C@@H](NC(=O)[C@H](CS)NC(=O)[C@@H](N)Cc1ccccc1)[C@@H](C)CC)[C@@H](C)O)[C@@H](C)O)C(=O)N[C@@H](CCC(=O)O)C(=O)N[C@@H](CCCNC(=N)N)C(=O)N[C@@H](CCCNC(=N)N)C(=O)N[C@@H](CCC(=O)O)C(N)=O` [β1-15, Phe-Cys-Ile-Pro-Thr-Glu-Tyr-Thr-Met-His-Ile-Glu-Arg-Arg-Glu] (H-FCIPTEYTMHIERRE-NH2; N-terminus assumed), on FRTL5 cells [1], the “Serum samples in which TSab-stimulated cAMP was significantly inhibited (p<0.05) / samples tested” value was 12/12. Also, the “Inhibition of TSab-stimulated cAMP generation (in words)” value at FRTL5 cells [1] is given as “significantly inhibited cAMP production”; at FRTL5 cells [1] (listed as (I)), “inhibitory effect”. For the same molecule, the “Inhibition of TSH-mediated cAMP generation (in words)” value on FRTL5 cells [2] is “effectively inhibit TSH-mediated cAMP generation”. Also, the EC50 in assay [3] came to 1160 ± 431 µM; in assay [4], 331 ± 45 µM.
With `CC(C)C[C@H](N)C(=O)N[C@@H](CO)C(=O)N[C@@H](CS)C(=O)N[C@@H](CCCCN)C(=O)N[C@@H](CS)C(=O)NCC(=O)N[C@@H](CCCCN)C(=O)N[C@@H](CS)C(=O)N[C@@H](CC(N)=O)C(=O)N[C@H](C(=O)N[C@@H](CC(=O)O)C(=O)N[C@@H](Cc1ccc(O)cc1)C(=O)N[C@@H](CO)C(=O)N[C@@H](CC(=O)O)C(=O)N[C@@H](CS)C(N)=O)[C@@H](C)O` [β81-95, Leu-Ser-Cys-Lys-Cys-Gly-Lys-Cys-Asn-Thr-Asp-Tyr-Ser-Asp-Cys] (H-LSCKCGKCNTDYSDC-NH2; N-terminus assumed), on FRTL5 cells [1], the “Serum samples in which TSab-stimulated cAMP was significantly inhibited (p<0.05) / samples tested” value was 10/11 and the “Inhibition of TSab-stimulated cAMP generation (in words)” value is “significantly inhibited cAMP production”. Further, at FRTL5 cells [1] (listed as (II)), the “Inhibition of TSab-stimulated cAMP generation (in words)” value is recorded as “inhibitory effect”. The “Inhibition of TSH-mediated cAMP generation (in words)” value at FRTL5 cells [2] is “effectively inhibit TSH-mediated cAMP generation”. In addition, in assay [4], the “Inhibition of TSH binding to human thyroid membrane (in words)” value is “inhibit binding of TSH to human thyroid membrane”.
Regarding `C[C@@H](O)[C@H](NC(=O)[C@H](CS)NC(=O)[C@H](Cc1ccc(O)cc1)NC(=O)[C@H](CC(N)=O)NC(=O)[C@@H](NC(=O)[C@@H](N)CCCCN)[C@@H](C)O)C(=O)N[C@@H](CCCCN)C(=O)N1CCC[C@H]1C(=O)N[C@@H](CCC(N)=O)C(=O)N[C@@H](CCCCN)C(=O)N[C@@H](CO)C(=O)N[C@@H](Cc1ccc(O)cc1)C(=O)O` [β101-112, Lys-Thr-Asn-Tyr-Cys-Thr-Lys-Pro-Gln-Lys-Ser-Tyr] (H-KTNYCTKPQKSY-OH), at FRTL5 cells [1], the “Serum samples in which TSab-stimulated cAMP was significantly inhibited (p<0.05) / samples tested” value is on record as 10/11 and the “Inhibition of TSab-stimulated cAMP generation (in words)” value is “significantly inhibited cAMP production”. Moreover, the “Inhibition of TSab-stimulated cAMP generation (in words)” value at FRTL5 cells [1] (listed as (III)) was “inhibitory effect”. Also, the “Inhibition of TSH-mediated cAMP generation (in words)” value at FRTL5 cells [2] is recorded as “effectively inhibit TSH-mediated cAMP generation”. This molecule displayed a concentration for a half-maximal effect (EC50) in assay [3] of 106 ± 8.7 µM. In assay [4], a half-maximal effect (EC50) was put at 80 ± 9 µM and the “Inhibition of TSH binding to human thyroid membrane (in words)” value is given as “inhibit binding of TSH to human thyroid membrane”.
On to “EGF: purified murine epidermal growth factor, unlabeled”, for which the concentration for a half-maximal effect (EC50) in assay [5] came to 0.000252 µM.
